Here are results for 26 molecules from US8063242B2, “2-aryl-propionic acids and pharmaceutical compositions containing them” (Dompe PHA.R.MA S.p.A., priority 2001, dated 2011).

The structures appear in SMILES notation.

In general, inhibition refers to the drop in the measured response relative to a control, in per cent.

Assay [1] has as its target T1, CXCR1 (Homo sapiens, UniProt P25024).
T1 construct: endogenous in cells; host or cells: human polymorphonucleate leukocytes (PMNs) from blood of healthy volunteers
T1 sequence (P25024 1-350): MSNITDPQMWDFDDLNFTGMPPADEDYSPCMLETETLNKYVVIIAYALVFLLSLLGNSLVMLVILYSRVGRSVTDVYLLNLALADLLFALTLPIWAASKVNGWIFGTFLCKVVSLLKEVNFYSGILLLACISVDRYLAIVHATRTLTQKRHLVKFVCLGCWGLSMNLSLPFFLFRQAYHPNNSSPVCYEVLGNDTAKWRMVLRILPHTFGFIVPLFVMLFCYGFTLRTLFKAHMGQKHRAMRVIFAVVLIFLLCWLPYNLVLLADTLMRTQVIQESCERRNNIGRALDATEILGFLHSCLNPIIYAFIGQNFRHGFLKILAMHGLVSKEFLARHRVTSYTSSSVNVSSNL
The assay is described as follows: IL-8 induced PMN chemotaxis test. Format: cell-based. The following applies: for inhibition at 1 µM: compound 10^−6 M, IL-8 induced PMN chemotaxis, IL-8 10^−9 M, read-out: % inhibition (C = 10^−6 M); for inhibition at 0.01 µM: read-out: % of inhibition IL-8 (c = 10^−8 M). As to the method: (§1) The compounds of the invention of formula (I) were evaluated in vitro for their ability to inhibit chemotaxis of polymorphonucleate leukocytes (hereinafter referred to as PMNs) and monocytes induced by the fractions of IL-8 and GRO-α. For this purpose, in order to isolate the PMNs from heparinized human blood, taken from healthy adult volunteers, mononucleates were removed by means of sedimentation on dextran (according to the procedure disclosed by W. J. Ming et al., J. Immunol., 138, 1469, 1987) and red blood cells by a hypotonic solution. The cell vitality was calculated by exclusion with Trypan blue, whilst the ratio of the circulating polymorphonucleates was estimated on the cytocentrifugate after staining with Diff Quick.
Human recombinant IL-8 (Pepro Tech) was used as stimulating agents in the chemotaxis experiments, giving practically identical results: the lyophilized protein was dissolved in a volume of HBSS containing 0.2% bovin serum albumin (BSA) so thus to […]
(§2) During the chemotaxis assay (according to W. Falket et al., J. Immunol. Methods, 33, 239, 1980) PVP-free filters with a porosity of 5 μm and microchambers suitable for replication were used.
(§3) The compounds of the invention in formula (I) were evaluated at a concentration ranging between 10^−6 and 10^−10 M; for this purpose they were added, at the same concentration, both to the lower pores and the upper pores of the microchamber. Evaluation of the ability of the compounds of the invention of formula (I) to inhibit IL-8-induced chemotaxis of human monocytes was carried out according to the method disclosed by Van Damme J. et al. (Eur. J. Immunol., 19, 2367, 1989).

In assay [2] the target is T2, CXCR2 (Homo sapiens, UniProt P25025).
T2 construct: endogenous in cells; host or cells: human polymorphonucleate leukocytes (PMNs) from blood of healthy volunteers
T2 sequence (P25025 1-360): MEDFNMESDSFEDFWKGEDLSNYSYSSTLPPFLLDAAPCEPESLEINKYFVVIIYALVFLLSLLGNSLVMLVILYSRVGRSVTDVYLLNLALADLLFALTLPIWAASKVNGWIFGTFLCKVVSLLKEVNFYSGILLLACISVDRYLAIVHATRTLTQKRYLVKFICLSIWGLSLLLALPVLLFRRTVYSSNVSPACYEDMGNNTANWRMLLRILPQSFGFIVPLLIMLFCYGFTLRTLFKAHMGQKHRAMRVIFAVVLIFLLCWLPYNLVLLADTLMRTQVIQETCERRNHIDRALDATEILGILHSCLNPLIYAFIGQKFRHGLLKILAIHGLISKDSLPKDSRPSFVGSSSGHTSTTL
Nature of the assay: GRO-α induced PMN chemotaxis test. Type of assay: cell-based. The following applies: compound 10^−8 M, PMN chemotaxis induced by GRO-α; for inhibition at 0.01 µM: read-out: % of inhibition GRO-α (c = 10^−8 M). As to the method: as §1, §2, §3
In the table below, biological activities of compounds showing high potency in the inhibition of PMN chemotaxis induced as by IL-8 as by the selective CXCR2 agonist GRO-α are reported.

Where [3] appears, read: compound 10^−8 M, PMN chemotaxis induced by IL-8.

On to `CCC(CC)c1cccc(C(C)C(=O)O)c1` (racemic) [Example 6, (R,S) 2-[3′-(alpha-ethyl-propyl)phenyl]propionic acid], for which the inhibition at 1 µM in assay [1] is 58 ± 2%.

On to `CC(C(=O)O)c1ccccc1Nc1c(Cl)cccc1Cl` (racemic) [Example 18, (R,S) 2-[2′-(2″,6″-dichlorophenyl)aminophenylpropionic acid], for which the inhibition at 1 µM in assay [1] came to 52 ± 3%.

For `CC(C(=O)O)c1ccccc1Oc1c(Cl)cccc1Cl` (racemic) [Example 25, (R,S) 2-[2′-(2″,6″-dichloro)phenoxy]phenylpropionic acid], the inhibition at 1 µM in assay [1] was 41 ± 9%.

With `CC(C)c1cccc(C(C)C(=O)O)c1` (stereo not drawn) [Example 5, 2-[(3′-isopropyl)phenyl]propionic acid], in assay [1], the inhibition at 1 µM was 51 ± 12%.

Take `CC(C(=O)O)c1cccc(C(C)c2ccccc2)c1` (stereo not drawn) [Example 7]: the inhibition at 1 µM in assay [1] was found to be 54 ± 4%.

Turning to `CC(C)c1cccc([C@@H](C)C(=O)O)c1` [Example 10, (R)-2-[(3′-isopropyl)phenyl]-propionic acid], the inhibition at 1 µM in assay [1] came to 43 ± 18%.

Regarding `CC(C)c1cccc([C@H](C)C(=O)O)c1` [Example 14, (S)-2-[(3′-isopropyl)phenyl]-propionic acid], the inhibition at 1 µM in assay [1] came to 50 ± 9%.

With `CC(O)c1cccc(C(C)C(=O)O)c1` [Example 16, (R,S), (R,S) 2-[3′-(alpha-hydroxy-ethyl)phenyl]propionic acid], the inhibition at 1 µM in assay [1] was 57 ± 6%.

As to `C[C@@H](C(=O)O)c1ccccc1Nc1c(Cl)cccc1Cl` [Example 19], the inhibition at 1 µM in assay [1] worked out at 46 ± 14%.

Turning to `C[C@H](C(=O)O)c1ccccc1Nc1c(Cl)cccc1Cl` [Example 20], the inhibition at 1 µM in assay [1] is 50 ± 7%.

In the case of `C[C@@H](C(=O)O)c1ccc(NS(=O)(=O)c2ccccc2)cc1` [Example 27], the “% of inhibition GRO-α (c = 10^−8 M)” value in assay [2] is 33 ± 11+ %. The “% of inhibition IL-8 (c = 10^−8 M)” value in assay [1] (setting [3]) was 49 ± 11%.

With `C[C@@H](C(=O)O)c1ccc(NS(C)(=O)=O)cc1` [Example 28, (R) 2-(4′-methanesulfonylamino)phenylpropionic acid], the inhibition at 0.01 µM in assay [2] was found to be 32 ± 5%; in assay [1] (setting [3]) it was 25 ± 7%.

Take `CC(C)S(=O)(=O)Nc1ccc([C@@H](C)C(=O)O)cc1` [Example 29, (R) 2-[4′-(2″-propane)sulfonylamino]phenylpropionic acid]: the figures for the inhibition at 0.01 µM in assay [2] and in assay [1] (setting [3]) were 44 ± 12% and 54 ± 14%, respectively.

For `C[C@@H](C(=O)O)c1ccc(NS(=O)(=O)C(F)(F)F)cc1` [Example 30, (R) 2-(4′-trifluoromethanesulfonylamino)phenylpropionic acid], the inhibition at 0.01 µM in assay [2] stood at 40 ± 14%; in assay [1] (setting [3]), 8 ± 10%.

For `C[C@@H](C(=O)O)c1ccc(NS(=O)(=O)Cc2ccccc2)cc1` [Example 31, (R) 2-(4′-benzylsulfonylamino)phenylpropionic acid], the results for the inhibition at 0.01 µM in assay [2] and in assay [1] (setting [3]) were 24 ± 8% and 60 ± 10%, respectively.

In the case of `C[C@@H](C(=O)O)c1ccc(NS(=O)(=O)c2ccccc2Cl)cc1` [Example 32, (R) 2-[4′-(2″-chloro)benzenesulfonylamino]phenylpropionic acid], the inhibition at 0.01 µM is 66 ± 10% in assay [2] and -2 ± 10% in assay [1] (setting [3]).

On to `CCc1ccccc1S(=O)(=O)Nc1ccc([C@@H](C)C(=O)O)cc1` [Example 33, (R) 2-[4′-(2″-ethyl)benzenesulfonylamino]phenylpropionic acid], for which the inhibition at 0.01 µM in assay [2] was 80 ± 10%; in assay [1] (setting [3]), 44 ± 14%.

On to `C[C@@H](C(=O)O)c1ccc(NS(N)(=O)=O)cc1` [Example 34, (R) 2-(4′-aminosulfonylamino)phenylpropionic acid], for which the inhibition at 0.01 µM in assay [2] came out at 2 ± 5%; in assay [1] (setting [3]), 55 ± 10%.

On to `C[C@@H](C(=O)O)c1ccc(OS(=O)(=O)Cc2ccccc2)cc1` [Example 36, (R) 2-(4′-benzylsulfonyloxy)phenylpropionic acid], for which the inhibition at 0.01 µM in assay [2] came out at 25 ± 11%; in assay [1] (setting [3]) it was 59 ± 11%.

With `C[C@@H](C(=O)O)c1ccc(OS(=O)(=O)C(F)(F)F)cc1` [Example 37, (R) 2-(4′-trifluoromethanesulfonyloxy)phenylpropionic acid], the inhibition at 0.01 µM in assay [2] worked out at 59 ± 10%; in assay [1] (setting [3]), 62 ± 7%.

In the case of `CC(C)S(=O)(=O)Oc1ccc([C@@H](C)C(=O)O)cc1` [Example 38, (R) 2-[4′-(2″-propane)sulfonyloxy]phenylpropionic acid], the results for the inhibition at 0.01 µM in assay [2] and in assay [1] (setting [3]) were 46 ± 6% and 49 ± 8%, respectively.

Consider `C[C@@H](C(=O)O)c1ccc(OS(=O)(=O)c2ccccc2Cl)cc1` [Example 39, (R) 2-[4′-(2″-chloro)benzenesulfonyloxy]phenylpropionic acid], for which the inhibition at 0.01 µM was 65 ± 10% in assay [2] and 25 ± 7% in assay [1] (setting [3]).

On to `CCc1ccccc1S(=O)(=O)Oc1ccc([C@@H](C)C(=O)O)cc1` [Example 40, (R) 2-[4′-(2″-ethyl)benzenesulfonyloxy]phenylpropionic acid], for which the results for the inhibition at 0.01 µM in assay [2] and in assay [1] (setting [3]) were 70 ± 10% and 45 ± 13%, respectively.

On to `C[C@@H](C(=O)O)c1ccc(OS(N)(=O)=O)cc1` [Example 41, (R) 2-(4′-aminosulfonyloxy)phenylpropionic acid], for which the inhibition at 0.01 µM worked out at 5 ± 7% in assay [2] and 65 ± 10% in assay [1] (setting [3]).

In the case of `C[C@@H](C(=O)O)c1ccc(CS(=O)(=O)c2ccccc2)cc1` [Example 42, (R) 2-(4′-benzenesulfonylmethyl)phenylpropionic acid], the inhibition at 0.01 µM was 52 ± 5% in assay [2] and 60 ± 7% in assay [1] (setting [3]).

Consider `C[C@@H](C(=O)O)c1ccc(CS(=O)(=O)C(F)(F)F)cc1` [Example 43, (R) 2-(4′-trifluoromethanesulfonylmethyl)phenylpropionic acid], for which the inhibition at 0.01 µM in assay [2] worked out at 45 ± 7%; in assay [1] (setting [3]), 48 ± 7%.
